This is an account of results in patent US20170105953A1, “METHOD FOR SUPPRESSING DIABETES AND/OR HEPATIC LIPIDS USING TORMENTIC ACID” (priority 2015, published 2017).

The test system of assay [1] is AMPK. In words: western blot, phospho-AMPK (Thr172)/total-AMPK in liver tissue and skeletal muscle. Format: in vivo, C57BL/6J mice. The settings on record: HF diet-fed mice. From the text: (§1) FIG. 4A is a western blot analysis showing the protein contents of GLUT4 in skeletal muscle, and phospho-AMPK (Thr172) and total-AMPK (Thr172) in both liver tissue and skeletal muscle, and phospho-Akt (Ser473) and total-Akt (Ser473) in skeletal muscle of the mice receiving tormentic acid (PTA) by oral gavage for 4 weeks; and
(§2) FIG. 4B is a diagram showing the protein contents of GLUT4 in skeletal muscle, the expression levels of phospho-AMPK (Thr172) to total AMPK in both liver tissue and skeletal muscle, and quantified results from FIG. 4A for the phosphorylation status of Akt (p-Akt normalized to total Akt (pAkt/Akt)) in skeletal muscle of the mice receiving tormentic acid (PTA) by oral gavage for 4 weeks.
(§3) For part 2, C57BL/6J mice (4 weeks old) were obtained from the National Laboratory Animal Breeding and Research Center. The mice were divided randomly into two groups after 7 days acclimation. The control (CON) group (n=9) was fed a low-fat diet (diet 12450B, Research Diets, Inc., New Brunswick, N.J., USA), whereas the experimental group was fed a 45% high-fat diet (diet 12451, Research Diets, Inc.) for 12 weeks. The compositions of the experimental diets are given in previous studies. After 8 weeks, the high-fat treated mice were randomly subdivided into four groups (n=9) including PTA1 (0.06 g/kg/day), PTA2 (0.12 g/kg/day) or rosiglitazone (Rosi; 1% methylcellulose, 10 mg/kg body weight) (GlaxoSmithKline) or vehicle and treated by oral gavage one time per day from the 9th to 12th weeks, while the mice were still on the high-fat diet, whereas the CON and high-fat control (HF) mice were treated with vehicle only. At the end, food was withheld from the animals (from 10 p.m. to 10 a.m.). The next day, the mice were sacrificed for blood and tissue collection and analysis. Livers, skeletal muscles, and white adipose tissues (WATs) (including epididymal, mesenteric, and retroperitoneal WAT) were weighed and excised, followed by immediate freezing, and kept at −80° C. for target gene analysis. Heparin (30 units/mL) (Sigma) was added to blood samples. Plasma samples were collected within 30 min by centrifugation at 1600 g for 15 min at 4° C. Plasma was obtained for insulin and leptin assay.
For orientation: A western blot detects proteins with antibodies after separation by electrophoresis.

Assay [2] has as its system 11β-HSD1. In words: semiquantitative RT-PCR, liver 11β-HSD1 mRNA. Format: in vivo, C57BL/6J mice. The following applies: HF diet-fed mice, normalized to GAPDH, vs HF group. From the text: (§4) For part 2, C57BL/6J mice (4 weeks old) were obtained from the National Laboratory Animal Breeding and Research Center. The mice were divided randomly into two groups after 7 days acclimation. The control (CON) group (n=9) was fed a low-fat diet (diet 12450B, Research Diets, Inc., New Brunswick, N.J., USA), whereas the experimental group was fed a 45% high-fat diet (diet 12451, Research Diets, Inc.) for 12 weeks. The compositions of the experimental diets are given in previous studies. […]
(§5) Total RNA from the liver tissue was isolated with a Trizol reagent (Molecular Research Center, Inc., Cincinnati, Ohio, USA) according to the manufacturer's directions. The integrity of the extracted total RNA was examined by 2% agarose gel electrophoresis, and the RNA concentration was determined by ultraviolet (UV) light absorbency at 260 and 280 nm (spectrophotometer U-2800A, Hitachi). […] The relative density of the band was evaluated using AlphaDigiDoc 1201 software (Alpha Innotech Co., San Leandro, Calif., USA). All of the measured PCR products were normalized to the amount of cDNA of GAPDH in each sample. […]

Assay [3] has as its system SREBP1c. Briefly: semiquantitative RT-PCR, liver SREBP1c mRNA. In kind it is in vivo, C57BL/6J mice. The settings on record: HF diet-fed mice, normalized to GAPDH, vs HF group.
Description: as §4, §5

In assay [4] the test system is PEPCK. In words: semiquantitative RT-PCR, liver PEPCK mRNA. The settings on record: HF diet-fed mice, normalized to GAPDH, vs HF group. In kind it is in vivo, C57BL/6J mice.
Description: as §4, §5

For assay [5], the system named is epididymal WAT and liver tissue. Briefly: histopathology of epididymal WAT and liver tissue. In kind it is in vivo. The settings on record: HF diet-fed C57BL/6J mice; for hepatocellular ballooning mean score: grade 0 none, 1 a few cells, 2 many cells.
Description: as §3
Small pieces of epididymal WAT and liver tissue were fixed with formalin (200 g/kg) neutral buffered solution and embedded in paraffin. Sections (8 μm) were cut and stained with hematoxylin and eosin. For microscopic examination, a microscope (Leica, DM2500) was used, and the images were taken using a Leica Digital camera (DFC-425-C).

The subject of assay [6] is Akt. Briefly: western blot, phospho-Akt (Ser473)/total-Akt in skeletal muscle. In kind it is in vivo, C57BL/6J mice. The settings on record: HF diet-fed mice.
Description: as §1, §2, §4

The test system of assay [7] is apo C-III. In words: semiquantitative RT-PCR, liver apo C-III mRNA. In kind it is in vivo, C57BL/6J mice. The settings on record: HF diet-fed mice, normalized to GAPDH, vs HF group.
Description: as §4, §5

For assay [8], the system named is G6 Pase. In words: semiquantitative RT-PCR, liver G6 Pase mRNA. Format: in vivo, C57BL/6J mice. The following applies: HF diet-fed mice, normalized to GAPDH, vs HF group.
Description: as §4, §5

Assay [9] deals with DGAT2. In words: semiquantitative RT-PCR, liver DGAT2 mRNA. Format: in vivo, C57BL/6J mice. The settings on record: HF diet-fed mice, normalized to GAPDH, vs HF group.
Description: as §4, §5

Assay [10] can be described thus: oral glucose tolerance test (OGTT) in normal mice. In kind it is in vivo. The settings on record: 12 h fasted ICR mice; 0.2, 0.4 and 0.8 g/kg orally 30 min before oral glucose load 1 g/kg; from 30 to 120 min. As to the method: For part 1, an oral glucose tolerance test (OGTT) was performed on 12 h fasted ICR mice (n=5) that were allowed access to 0.2, 0.4, and 0.8 g/kg PTA or an equivalent amount of vehicle (water), which were given orally 30 min before an oral glucose load (1 g/kg body wt). The control group was given glucose, whereas the normal group was not. Blood samples were collected from the retro-orbital sinus of fasted mice at the time of the glucose administration (0) and every 30 min until 120 min after glucose administration.

Setting [11] is: PTA1 0.06 g/kg/day oral gavage 4 weeks.
The mark [12] stands for this setting: PTA2 0.12 g/kg/day oral gavage 4 weeks.

As to `C[C@@H]1CC[C@]2(C(=O)O)CC[C@]3(C)C(=CC[C@@H]4[C@@]5(C)C[C@@H](O)[C@H](O)C(C)(C)[C@@H]5CC[C@]43C)[C@@H]2[C@]1(C)O` [PTA, tormentic acid], the “expression levels of phospho-AMPK/total-AMPK” value was “significantly increase” in [1] (liver tissue, PTA1 0.06 g/kg/day 4 weeks); “significantly increase” in [1] (liver tissue, PTA2 0.12 g/kg/day 4 weeks); “significantly increase” in assay [1] (skeletal muscle, PTA1 0.06 g/kg/day 4 weeks); “significantly increase” in assay [1] (skeletal muscle, PTA2 0.12 g/kg/day 4 weeks). Moreover, the “mRNA level of 11β-HSD1 in liver” value in assay [2] (PTA1 0.06 g/kg/day 4 weeks) and in assay [2] (PTA2 0.12 g/kg/day 4 weeks) was “significantly decrease” throughout. Also, the “mRNA level of SREBP1c in liver” value in assay [3] (PTA1 0.06 g/kg/day 4 weeks) and in assay [3] (PTA2 0.12 g/kg/day 4 weeks) was “significantly decrease” throughout. Also, the “mRNA level of PEPCK in liver” value in assay [4] (PTA1 0.06 g/kg/day 4 weeks) and in assay [4] (PTA2 0.12 g/kg/day 4 weeks) was “significantly decrease” each time. Moreover, the figures for the “average area of adipocytes (epididymal WAT)” value in [5] (setting [11]) and in [5] (setting [12]) were 2380.9±108.6 μm2 and 2243.2±100.9 μm^2, respectively. In addition, the results for the “hepatocellular ballooning mean score” value in [5] (setting [11]) and in assay [5] (setting [12]) were 1.0±0.2 and 0.7±0.2, respectively. The “expression levels of phospho-Akt/total-Akt” value in assay [6] (PTA1 0.06 g/kg/day 4 weeks) and in assay [6] (PTA2 0.12 g/kg/day 4 weeks) was “significantly increased” in each case. In addition, the “mRNA level of apo C-III in liver” value in assay [7] (PTA1 0.06 g/kg/day 4 weeks) and in [7] (PTA2 0.12 g/kg/day 4 weeks) was “significantly decrease” in each case. The “mRNA level of G6 Pase in liver” value in assay [8] (PTA1 0.06 g/kg/day 4 weeks) and in assay [8] (PTA2 0.12 g/kg/day 4 weeks) was “significantly decrease” in each case. In addition, the “mRNA level of DGAT2 in liver” value in assay [9] (PTA1 0.06 g/kg/day 4 weeks) and in assay [9] (PTA2 0.12 g/kg/day 4 weeks) was “significantly decrease” each time. Moreover, the “levels of blood glucose (OGTT)” value in assay [10] is on record as “decreased”.
